Like-named read-outs stand apart in the source and are kept apart here.
Tests used:
[1] = Pharmacokinetic experiments in CD-1 mice; type: in vivo; details: male, mouse, plasma; for half-life: read-out: Terminal t1/2 (converted); for Vd: read-out: Vss
Method: Experiment animals: CD-1 mice, male, 6-7 weeks of age; body weight: 20-25 g; Preparation of samples: the test compounds respectively were formulated to 0.2 mg/mL (for intravenous administration) and 1.0 mg/mL (for oral administration) for use. Administration routes: oral administration/intravenous administration. Amount and frequency of administration: 5 mL/kg for single administration.
Sample collection: blood was collected at the time points of 5 min, 15 min, 30 min, 1 h, 2 h, 4 h, 8 h and 24 h, about […] whole blood was collected from 3 animals at each time point. All of the animals were euthanized after the experiments.
Sample analysis: the collected samples were detected by LC-MS/MS, and the instrument model is SHIMADZU20A-API4000.
(§1) Pharmacokinetic data analysis: the obtained plasma concentration data were fitted and calculated using WinNolin according to non-compartment model.

EGFR kinases = EGFR kinases (Homo sapiens, UniProt P00533); experiment: Reversible inhibition test of enzyme activity of EGFR kinases; type: biochemical
Sequence of EGFR kinases (P00533 25-1210): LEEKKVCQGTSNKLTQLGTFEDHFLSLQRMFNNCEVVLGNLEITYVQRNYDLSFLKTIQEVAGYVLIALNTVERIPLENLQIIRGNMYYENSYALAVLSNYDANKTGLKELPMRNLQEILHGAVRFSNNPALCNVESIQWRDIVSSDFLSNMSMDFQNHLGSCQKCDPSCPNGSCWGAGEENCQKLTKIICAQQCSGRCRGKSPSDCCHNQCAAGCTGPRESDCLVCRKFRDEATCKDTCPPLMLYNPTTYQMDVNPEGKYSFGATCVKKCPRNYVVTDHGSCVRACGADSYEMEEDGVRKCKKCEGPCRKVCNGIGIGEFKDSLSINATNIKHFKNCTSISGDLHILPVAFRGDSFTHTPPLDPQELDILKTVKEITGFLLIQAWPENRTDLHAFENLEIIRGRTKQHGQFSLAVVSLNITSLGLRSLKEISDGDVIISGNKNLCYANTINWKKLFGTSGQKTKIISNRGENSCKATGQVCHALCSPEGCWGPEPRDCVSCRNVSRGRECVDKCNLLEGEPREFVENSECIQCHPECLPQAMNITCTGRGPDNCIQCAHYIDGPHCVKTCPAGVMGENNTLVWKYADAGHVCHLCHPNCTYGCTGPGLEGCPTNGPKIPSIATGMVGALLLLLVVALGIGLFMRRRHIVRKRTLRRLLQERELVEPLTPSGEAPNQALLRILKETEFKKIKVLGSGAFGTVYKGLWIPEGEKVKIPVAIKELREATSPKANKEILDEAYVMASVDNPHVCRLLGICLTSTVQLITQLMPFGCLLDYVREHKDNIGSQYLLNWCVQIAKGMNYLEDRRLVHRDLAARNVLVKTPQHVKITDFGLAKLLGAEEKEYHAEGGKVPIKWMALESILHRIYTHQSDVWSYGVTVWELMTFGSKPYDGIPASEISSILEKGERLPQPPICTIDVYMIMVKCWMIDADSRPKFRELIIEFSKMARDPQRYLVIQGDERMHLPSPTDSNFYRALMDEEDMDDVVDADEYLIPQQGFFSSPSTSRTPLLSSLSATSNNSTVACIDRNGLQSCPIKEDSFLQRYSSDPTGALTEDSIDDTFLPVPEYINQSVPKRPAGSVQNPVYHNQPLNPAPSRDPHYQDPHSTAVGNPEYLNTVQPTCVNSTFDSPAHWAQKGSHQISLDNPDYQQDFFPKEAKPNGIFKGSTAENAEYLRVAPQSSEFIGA

H1975 = experiment: Inhibition of tumor cells, MTS method; type: cell-based; details: Homo sapiens, NCI-H1975, 72 hours
Method: (§2) (1) Compounds: in vitro studies the test compounds was dissolved in 100% DMSO and diluted until the final concentration of DMSO was 0.1%. The 0.1% (v/v) DMSO was added into culture medium as solvent control. 9 concentration gradients were tested and each gradient was repeated twice. (2) Tumor cell lines: the tumor cell lines were cultivated in RPMI10 culture medium containing 10% fetal calf serum in incubator at 37° C. in a 5% CO2 air incubator. The tested tumor cell lines were: BT474, MDA-MB-231, SK-Br-3, A431, H292, H1975, HCC827, A549, H1650 and H1734. (3) MTS method: cells were seeded into 96-well plate to give a density of about 3000 cells per well, and incubated overnight in a humidified incubator at 37° C. In the next day, the test compounds were added to the wells and further incubated for 72 hours. The cell activity was detected using MTS. IC50 was calculated (the concentration of a compound that is required for 50% inhibition of the cell growth versus the DMSO control group, using nonlinear regression analysis of software GraphPad Prism). […] In a 96-well plate, each test compound was tested at 9 dosage concentrations and each dosage was made in triplicate. Samples were added in 100 μL/well. Cell control and negative control wells contained diluents instead of compounds. Except the negative control well, 100 μL cell suspension of complete medium was added into each test well, wherein corresponding cell numbers were included to assure that the cells in cell control well just cover the bottom of the well as the required incubation time was reached. The plate was incubated in a CO2 incubator at 37° C. for 48 hours. The liquid in test wells was removed by pipetting. 100 μL CCK-8 (Cell counting Kit-8, purchased from DOJINDO Molecular Technologies) detection liquid (containing 10% CCK-8, 5% FBS corresponding medium) was added into each test well, then the plate was incubated in a CO2 incubator under at 37° C. for 3 hours. OD value was detected by ELIASA at A450 nm. Cell viability percentage (%)=(O.D. test compound-O.D. blank)/(O.D. control-O.D. blank)×100. Mean value was calculated for each 3 repeated wells, and IC50 was calculated using nonlinear regression (fitted curve) data analysis method.

H1650 = experiment: Inhibition of tumor cells, MTS method; type: cell-based; details: Homo sapiens, NCI-H1650, 72 hours
Method: as §2

HCC827 = experiment: Inhibition of tumor cells, MTS method; type: cell-based; details: Homo sapiens, 72 hours
Method: as §2

A431 = experiment: Inhibition of tumor cells, MTS method; type: cell-based; details: Homo sapiens, A-431, 72 hours
Method: as §2

H292 = experiment: Inhibition of tumor cells, MTS method; type: cell-based; details: Homo sapiens, NCI-H292, 72 hours
Method: as §2

A549 = experiment: Inhibition of tumor cells, MTS method; type: cell-based; details: Homo sapiens, 72 hours
Method: as §2

SK-Br-3 = experiment: Inhibition of tumor cells, MTS method; type: cell-based; details: Homo sapiens, 72 hours
Method: as §2

BT474 = experiment: Inhibition of tumor cells, MTS method; type: cell-based; details: Homo sapiens, BT-474, 72 hours
Method: as §2

H1734 = experiment: Inhibition of tumor cells, MTS method; type: cell-based; details: Homo sapiens, NCI-H1734, 72 hours
Method: as §2

EGFR = EGFR (Homo sapiens, UniProt P00533); experiment: Caliper Mobility Shift Assay, inhibition of EGFR kinase activity; type: biochemical
Sequence of EGFR (P00533 25-1210): as above

HER2 = HER2 (Homo sapiens, UniProt P04626); experiment: Caliper Mobility Shift Assay, inhibition of HER2 kinase activity; type: biochemical
Sequence of HER2 (P04626 23-1255): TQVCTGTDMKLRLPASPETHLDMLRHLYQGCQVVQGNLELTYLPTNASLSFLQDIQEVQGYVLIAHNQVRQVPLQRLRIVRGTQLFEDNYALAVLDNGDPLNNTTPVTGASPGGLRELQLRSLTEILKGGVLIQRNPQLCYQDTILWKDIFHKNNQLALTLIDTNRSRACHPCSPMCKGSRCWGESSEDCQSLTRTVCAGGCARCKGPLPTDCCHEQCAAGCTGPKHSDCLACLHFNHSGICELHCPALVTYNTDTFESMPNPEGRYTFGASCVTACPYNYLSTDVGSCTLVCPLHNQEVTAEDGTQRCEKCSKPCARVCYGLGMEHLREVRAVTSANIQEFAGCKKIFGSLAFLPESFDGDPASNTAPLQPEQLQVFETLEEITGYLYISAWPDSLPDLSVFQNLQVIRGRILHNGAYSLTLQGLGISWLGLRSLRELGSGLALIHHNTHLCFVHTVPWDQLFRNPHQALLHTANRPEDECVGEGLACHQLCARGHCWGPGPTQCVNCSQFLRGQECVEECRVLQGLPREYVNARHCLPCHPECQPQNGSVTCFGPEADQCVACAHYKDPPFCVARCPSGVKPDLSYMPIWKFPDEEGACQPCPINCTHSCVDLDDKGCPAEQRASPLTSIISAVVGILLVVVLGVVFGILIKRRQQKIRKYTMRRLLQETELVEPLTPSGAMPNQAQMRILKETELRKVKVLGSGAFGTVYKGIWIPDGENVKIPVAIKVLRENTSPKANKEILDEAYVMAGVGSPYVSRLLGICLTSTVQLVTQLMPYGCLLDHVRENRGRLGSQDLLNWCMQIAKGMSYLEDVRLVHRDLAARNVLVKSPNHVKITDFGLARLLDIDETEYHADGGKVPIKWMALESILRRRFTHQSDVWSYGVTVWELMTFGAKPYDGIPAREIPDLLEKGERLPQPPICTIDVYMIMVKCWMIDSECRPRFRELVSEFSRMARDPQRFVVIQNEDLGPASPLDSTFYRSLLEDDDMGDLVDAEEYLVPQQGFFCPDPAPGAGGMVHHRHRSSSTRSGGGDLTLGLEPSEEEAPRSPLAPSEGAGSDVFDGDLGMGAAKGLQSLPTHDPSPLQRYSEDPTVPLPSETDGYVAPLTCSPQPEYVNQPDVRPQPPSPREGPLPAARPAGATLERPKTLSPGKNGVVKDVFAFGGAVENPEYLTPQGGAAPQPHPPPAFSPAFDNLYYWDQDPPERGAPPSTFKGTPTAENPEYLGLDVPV

[2] = Long-term toxicity experiment (28 days) in dogs; type: in vivo; details: dogs, 5 mg/kg, 28 days; reaction of Afatinib group greater than compound Ie group
Method: (§3) Experiment Animals: rats, male, 6-8 weeks of age, body weight: 180-250 g; dogs, male, about 24 months, body weight: 7-10 kg.
(§4) Preparation of sample: in rat's experiments the mixed formulation powder of the compound Ie was formulated into 0.1, 0.3 and 1 mg/mL homogeneous suspension for use; administration route: oral administration; […]. In dog's experiments the tablets of compound Ie were fed to dogs. […].
(§5) Sample collection: blood was collected at the time points of 1, 10, 20 and 28 days respectively, about 120-200 μL whole blood was collected from 3 animals at each time point. Blood was collected at 1 h, 4 h, 8 h and 24 h after administration.
(§6) Sample analysis: the collected samples were detected by LC-MS/MS, and the instrument model was SHIMADZU20 A-API4000.
as §1

[3] = Long-term toxicity experiment (28 days) in rats; type: in vivo
Method: as §3, §4, §5, §6, §1

MDA-MB-231 = experiment: Inhibition of tumor cells, MTS method; type: cell-based; details: Homo sapiens, 72 hours
Method: as §2

Compound	AUC(0-inf) ([1]; 1 mg/kg Intravenous Injection)	AUC(0-t) ([1]; 1 mg/kg Intravenous Injection)	MRT inf ([1]; 1 mg/kg Intravenous Injection)	clearance ([1]; 1 mg/kg Intravenous Injection)	half-life ([1]; 1 mg/kg Intravenous Injection)	Vd ([1]; 1 mg/kg Intravenous Injection)	AUC(0-t) ([1]; 5 mg/kg Oral Administration)	Cmax ([1]; 5 mg/kg Oral Administration)	Tmax ([1]; 5 mg/kg Oral Administration)	IC50 (H1975)	IC50 (H1650)	IC50 (HCC827)	IC50 (A431)	IC50 (H292)	IC50 (A549)	IC50 (SK-Br-3)	IC50 (BT474)	IC50 (H1734)	IC50 (EGFR)	IC50 (HER2)	other results
CN(C)C/C=C/C(=O)Nc1cc2c(Nc3ccc(F)c(Cl)c3)ncnc2cc1O[C@H]1CCOC1 [Afatinib, reference compound]	–	–	–	–	–	–	–	–	–	–	–	–	–	–	–	–	–	–	–	–	toxicity reaction [2]: toxicity reactions; toxicity reaction ([3]; rat, in vivo, 10 mg/kg): very significant toxicity reaction; weight during recovery phase after drug withdrawal ([3]; rat, in vivo, 10 mg/kg): reduced weight during the recovery phase; toxicity reaction ([3]; rats, 5 mg/kg, 28 days): significant toxicity reaction
O=C(/C=C/c1ccccn1)Nc1cc2c(Nc3ccc(F)c(Cl)c3)ncnc2cc1OC1CCOC1 (stereo not drawn) [Compound Ib]	–	–	–	–	–	–	–	–	–	30.8 µM	–	0.157 µM	0.899 µM	0.502 µM	–	3.1 µM	3.18 µM	–	3.9 nM	90 nM	IC50 (MDA-MB-231): 4.01 µM
COc1cc2ncnc(Nc3ccc(F)c(Cl)c3)c2cc1NC(=O)/C=C/c1ccccn1 [Compound Id]	–	–	–	–	–	–	–	–	–	–	–	0.04 µM	–	44.1 µM	–	0.155 µM	2.14 µM	–	5.1 nM	> 10000 nM	–

The remaining molecules from weak to strong by IC50 (HCC827), led by results:

AUC(0-inf) ([1]; 1 mg/kg Intravenous Injection)	AUC(0-t) ([1]; 1 mg/kg Intravenous Injection)	MRT inf ([1]; 1 mg/kg Intravenous Injection)	clearance ([1]; 1 mg/kg Intravenous Injection)	half-life ([1]; 1 mg/kg Intravenous Injection)	Vd ([1]; 1 mg/kg Intravenous Injection)	AUC(0-t) ([1]; 5 mg/kg Oral Administration)	Cmax ([1]; 5 mg/kg Oral Administration)	Tmax ([1]; 5 mg/kg Oral Administration)	IC50 (H1975)	IC50 (H1650)	IC50 (HCC827)	IC50 (A431)	IC50 (H292)	IC50 (A549)	IC50 (SK-Br-3)	IC50 (BT474)	IC50 (H1734)	IC50 (EGFR)	IC50 (HER2)	Compound	other results
110 ng·h/mL	104 ng·h/mL	0.616 h	153 mL/min/kg	43.7 min	5.47 L/kg	91.4 ng·h/mL	31.4 ng/mL	1.17 h	0.882 µM	6.57 µM	0.015 µM	4.91 µM	0.873 µM	5.93 µM	0.42 µM	0.264 µM	1.34 µM	2 nM	13 nM	CN(C/C=C/C(=O)Nc1cc2c(Nc3ccc(F)c(Cl)c3)ncnc2cc1OC1CCOC1)Cc1ccccc1 (stereo not drawn) [Compound Ia]	AUC(0-inf) ([1]; 5 mg/kg Oral Administration): 140 ng·h/mL; half-life ([1]; 5 mg/kg Oral Administration): 106 min; reversibility of inhibition of EGFR kinases (EGFR kinases): irreversibility
206 ng·h/mL	163 ng·h/mL	3.01 h	87.2 mL/min/kg	158 min	14.7 L/kg	283 ng·h/mL	66.7 ng/mL	2 h	0.715 µM	> 10 µM	0.012 µM	13 µM	0.727 µM	> 10 µM	0.418 µM	0.278 µM	5.26 µM	1.3 nM	15 nM	COc1cc2ncnc(Nc3ccc(F)c(Cl)c3)c2cc1NC(=O)/C=C/CN(C)Cc1ccccc1 [Compound Ic]	IC50 (MDA-MB-231): 13.9 µM

— patent US20150065709A1, “Aminoquinazoline Derivative And Use Thereof In Preparing Anti-Malignant Tumor Medicament” (METABOMICS, INC, priority 2012, published 2015)
